Laboratory results: US20100132066A1, “AGROBACTERIUM-MEDIATED METHOD FOR PRODUCING TRANSFORMED PLANT WITHOUT SELECTION STEP” (JAPAN TOBACCO INC., priority 2007, published 2010)

What was measured:
[1] = test system: Maize (variety: A188) immature embryos; assay: Regeneration of whole plants from immature embryos cultured on coculture medium supplemented with various types of auxin (Example 1); format: cell-based; conditions: auxin 1.5 mg/l in coculture medium; for Regeneration rate (%): 7 days, no selection step, LSZ medium 30 mg/l hygromycin about 2 weeks, LBA4404 (pSB134), 25 immature embryos; for Vigor: mean score 0-3 of regenerated plants, 2 weeks on regeneration medium
From the text: As used herein, the term “vigor” is intended to mean the growth vigor of a regenerated plant. The vigor of a plant may be measured by any known technique used in the art. For example, in the case of maize, scoring may be performed as follows for each transformed plant tissue after the regeneration step: transformed plant tissue showing no regeneration=0, transformed plant tissue giving a regenerated shoot whose maximum length is less than 5 mm=1, transformed plant tissue giving a regenerated shoot whose maximum length is 5 mm to less than 2 cm=2, and transformed plant tissue giving a regenerated shoot whose maximum length is 2 cm or longer=3, followed by calculating a mean value for all transformed plant tissues to thereby determine their vigor. The method of evaluation of vigor is not limited to this technique, and appropriate modifications may be made to well-known techniques, e.g., depending on the type of target to be evaluated.
25 immature embryos were provided for each test. The bar graph (vertical axis on the left side) represents the vigor of regenerated plants, the line graph (vertical axis on the right side) represents the regeneration rate (calculated by dividing the number of immature embryos showing regeneration in each test by the number of inoculated immature embryos), and the horizontal axis represents the type of auxin contained in a coculture medium. The auxin concentration in the coculture medium was set to 1.5 mg/l for each test. The vigor of regenerated plants was evaluated by scoring as follows: immature embryo showing no regeneration=0, immature embryo giving a regenerated shoot whose maximum length is less than 5 mm=1, immature embryo giving a regenerated shoot whose maximum length is 5 mm to less than 2 cm=2, and immature embryo giving a regenerated shoot whose maximum length is 2 cm or longer=3.
Maize (variety: A188) immature embryos (1.0 to 1 5 mm in size) at 7 to 14 days after pollination were aseptically collected and washed once with LS-inf liquid medium (Non-patent Publication No. 11), followed by pretreatment (thermal treatment at 46° C. for 3 minutes and centrifugation at 15,000 rpm for 10 minutes) to increase gene transfer efficiency. In LS-inf liquid medium containing 100 μM acetosyringone, Agrobacterium strain LBA4404 (pSB134) (Non-patent Publication No. 27) was suspended at about 1.0×10^9 cfu/ml to prepare an inoculum. The thermally-treated and centrifuged immature embryos were mixed with the inoculum, vortexed for 30 seconds, and then allowed to stand for 5 minutes at room temperature.
The number of immature embryos which regenerated into whole plants was determined, and the regenerated plants were examined for their vigor.

[2] = test system: Immature embryos (variety: A188); assay: Effect of dicamba and 2,4-D in coculture medium on regeneration (Example 2, FIG. 3); format: cell-based, Maize; conditions: for vigor of regenerated plants: mean score 0-3, coculture medium with this auxin alone (1.5 mg/l), selection step eliminated, FIG. 3
From the text: FIG. 3 is a graph showing the effects of the dicamba/2,4-D ratio on the plant regeneration rate from cocultured immature embryos and on the vigor of regenerated plants. 38 immature embryos were provided for each test. The bar graph (vertical axis on the left side) represents the vigor of regenerated plants, the line graph (vertical axis on the right side) represents the regeneration rate (calculated by dividing the number of immature embryos showing regeneration in each test by the number of inoculated immature embryos), and the horizontal axis represents the percentage of dicamba contained in a coculture medium. The numerical values on the horizontal axis mean that auxin is contained in the coculture medium at the following ratios: 0 mg/l dicamba+1.5 mg/l 2,4-D (0% dicamba), 0.375 mg/l dicamba+1.125 mg/l 2,4-D (25% dicamba), 0.75 mg/l dicamba+0.75 mg/l 2,4-D (50% dicamba), 1.125 mg/l dicamba+0.375 mg/l 2,4-D (75% dicamba), and 1.5 mg/l dicamba+0 mg/l 2,4-D (100% dicamba). The vigor of regenerated plants was evaluated by scoring as follows: immature embryo showing no regeneration=0, immature embryo giving a regenerated shoot whose maximum length is less than 5 mm=1, immature embryo giving a regenerated shoot whose maximum length is 5 mm to less than 2 cm=2, and immature embryo giving a regenerated shoot whose maximum length is 2 cm or longer=3.
The vector U0009B shown in FIG. 2 and SEQ ID NO: 1 was constructed by adding necessary elements to a vector having pSB11 (Non-patent Publication No. 28) as a skeletal structure. […] The number of immature embryos which regenerated into whole plants was determined, and the regenerated plants were examined for their vigor.

[3] = test system: Immature embryos (variety: A188); assay: Transformation efficiency with regeneration medium containing blasticidin S (Example 4); format: cell-based, Maize; conditions: for Number of immature embryos Regenerated: about 2 weeks, 46 inoculated
[4] = higher percentage of dicamba (0-100%, rest 2,4-D, total 1.5 mg/l) in coculture medium
[5] = 2 mg/l blasticidin S in regeneration medium

| SMILES | Regeneration rate (%) [1] [%] | Vigor [1] | vigor of regenerated plants [2] | other results |
| --- | --- | --- | --- | --- |
| O=C(O)COc1cc(Cl)c(Cl)cc1Cl [2,4,5-T, 2,4,5-trichlorophenoxyacetic acid] | 84.0 | 1.5 |  |  |
| O=C(O)COc1ccc(Cl)cc1Cl [2,4-D, 2,4-dichlorophenoxyacetic acid] | 84.0 |  | 0.3 |  |
| COc1c(Cl)ccc(Cl)c1C(=O)O [Dicamba, 3,6-dichloro-o-anisic acid] | 100 | 1.5 | 2.3 | growth of the regenerated plants [2, 4]: more vigorous growth; regeneration rate [2, 4]: higher regeneration rate |
| Nc1c(Cl)c(Cl)nc(C(=O)O)c1Cl [Picloram, 4-amino-3,5,6-trichloropicolinic acid] | 76.4 | 1.2 |  |  |
| O=C(O)c1cc(I)cc(I)c1I [TIBA, 2,3,5-triiodobenzoic acid] | 4.0 | 0.1 |  |  |
| CN(CC[C@H](N)CC(=O)N[C@H]1C=C[C@H](n2ccc(N)nc2=O)O[C@@H]1C(=O)O)C(=N)N [blasticidin, blasticidin S] |  |  |  | GUS− [3, 5]: 12; Number of immature embryos GUS+ (B) [3, 5]: 19; Striped, dotted (C) [3, 5]: 14; Number of immature embryos Regenerated [3, 5]: 45; Number of immature embryos Regenerated ([3]; 2 mg/l blasticidin S in regeneration medium, listed as blasticidin S): Almost all; B/A (%) ([3]; 2 mg/l blasticidin S, GUS+ per inoculated embryos): 41.3%; C/A (%) ([3]; 2 mg/l blasticidin S, striped/dotted per inoculated embryos): 3.04% |
